# According to patent US5856310A, “Inhibition of farnesyltransferase” (University of Pittsburgh, priority 1995, dated 1999):
# Like-named read-outs stand apart in the source and are kept apart here. Peptide text beside a SMILES is read from it. * marks the point of attachment. Cbz = O=C(OCc1ccccc1)*
# Legend:
# [1] = tested on: Ras oncogene-transformed EJ3 cells; type: cell-based, murine
# Experimental: (§1) The ability of the peptides and their bis-carbobenzyloxy methyl ester derivatives (using BBM-CA1 A2 X; BBM-C-AMBA-M as examples) to inhibit tumor cell growth was determined by the well-known MTT assay. Ras oncogene-transformed EJ3 cells (a balbc 3T3 murine fibroblast (A-31) transformed with H-ras oncogene from a human bladder carcinoma) were exposed to various concentrations of peptides, peptidomimetics and their functionalized derivatives. Four days later, the percentage of live cells present relative to control was determined for each drug concentration. The extent of cell proliferation in the absence of drug was used as 100% proliferation.
# [2] = tested on: A-31 cells; assay: Cell growth inhibition, MTT assay, A-31 cells; type: cell-based, murine; settings: concentrations of 500 μM, FIG. 7B
# Experimental: as §1
# An important aspect of the invention is the finding that the antitumor activity of the peptidomimetics of the invention are selective for ras-transformed cells as compared to their non-transformed parent cell line. A-31 is a normal, non-tumorigenic cell line clone from balb murine fibroblasts. EJ3 is a tumorigenic (produces tumors when injected into mice) cell line that was obtained by transforming A-31 cells with H-ras isolated from a human bladder tumor. The ability of BBM-peptides and peptidomimetics to inhibit cell growth of these two related cell lines (A-31 and EJ3) was determined by MTT assay as described above.
# [3] = tested on: p21ras plasma membrane association in EJ3 cells; assay: p21ras membrane association in EJ3 cells (immunoprecipitation, Western blot); type: cell-based, murine; settings: FIG. 6
# Description: This is indicated by FIG. 6. EJ3 cells were exposed to saline, lovastatin, C-AMBA-M or BBM-C-AMBA-M and p21ras immunoprecipitated with the anti-ras antibody Y13-259 (Oncogene Science Inc.). Membrane-bound and cytosolic p21ras were separated by SDS-PAGE and Western blotted with an anti-p21ras antibody (Y13-259). Control cells (saline-treated) contained only membrane-bound p21ras.
# [4] = target: T1, p21ras farnesyltransferase from EJ3 cells (Mus musculus, UniProt Q61239+Q8K2I1); assay: p21ras farnesyltransferase inhibition, enzyme from EJ3 cells; type: biochemical, murine
# T1 construct: p21ras farnesyltransferase was partially purified from EJ3 cells by DEAE-chromatography; endogenous in cells; host or cells: EJ3 cells (H-ras-transformed Balb/c 3T3 murine fibroblasts)
# T1 sequence (Q8K2I1 whole entry, one chain of several): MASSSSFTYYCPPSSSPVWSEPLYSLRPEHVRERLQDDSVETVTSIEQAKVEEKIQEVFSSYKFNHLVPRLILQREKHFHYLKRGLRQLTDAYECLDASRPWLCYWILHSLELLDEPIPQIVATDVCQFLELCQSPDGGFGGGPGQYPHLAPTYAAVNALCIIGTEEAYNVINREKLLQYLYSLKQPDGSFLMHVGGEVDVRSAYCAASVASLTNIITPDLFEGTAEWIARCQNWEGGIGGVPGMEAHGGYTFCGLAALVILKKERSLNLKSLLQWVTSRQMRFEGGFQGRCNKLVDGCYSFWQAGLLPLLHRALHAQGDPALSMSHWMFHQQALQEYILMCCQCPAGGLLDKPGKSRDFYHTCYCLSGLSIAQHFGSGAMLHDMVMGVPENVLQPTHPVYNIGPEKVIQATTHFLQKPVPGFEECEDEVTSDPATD
# Experimental: Human colon carcinoma COLO-205 cells (ATCC, Rockville, Md.) were grown to confluency in RPMI containing 10% FBS, 1% penicillin/streptomycin at 37° C and 10% Co2 atmosphere. The cells were homogenized in lysis buffer (10 mM Hepes pH 7.4, 1 mM MgCl2, 1 mM EDTA, 0.1 mM DDT, and 0.1 mM PMSF) and centrifuged at 12,000×g followed by a 60,000×g centrifugation of the supernatant. p21ras farnesyltransferase from 60,000×g supernatant fractions was then partially purified by DEAE-sephacel chromatography where it was eluted with 50 mM Tris (pH 7.5) containing 0.4M NaCl. p21ras farnesyltransferase activity was determined by measuring the amount of [3H]FPP transferred to recombinant p21H-ras as previously described (15,16). p21H-ras was isolated from E. coli strain RRI expressing p21H-ras (Hoffman-LaRoche, Inc.) as described previously (25) except for the last step of purification where HPLC was replaced by DEAE-sephacel chromatography. For peptide inhibition studios, CA1 A2 X peptides and peptidomimetics were premixed with p21ras farnesyltransferase (40 μg) prior to adding the reaction mixture (50 Mm Tris (pH. 7.5), 50 μM ZnCl2, 20 mM KCl, 1 mM DTT, 20 μM p21H-ras, 9 mmol [3H]FPP). After incubation for one hour at 37° C., the reaction was stopped and filtered on glass fibers as described earlier (15,16). […] The results for C-AMBA-M (.quadrature.), CVIM (.circle-solid.), CIIM (Δ), CVVM (.gradient.) and VCIM (.smallcircle.) are indicated in FIG. 1. The data presented is representative of three independent experiments.
# The ability of CA1 A2 X tetrapeptides, peptidomimetics and corresponding functionalized derivatives to inhibit p21ras farnesyltransferase from EJ3 cells was determined in vitro as described above (Example 9). p21ras farnesyltransferase was partially purified from EJ3 cells by DEAE-chromatography as described above (Example 9) and incubated with various concentrations of peptides and peptidomimetics. The ability of these drugs to inhibit the transfer of [3H]FPP to recombinant p21ras was determined as described (Example 9).
# [5] = target: T2, p21ras farnesyltransferase from Burkitt's lymphoma (Daudi) (Homo sapiens, UniProt P49354+P49356); assay: p21ras farnesyltransferase activity assay, enzyme from Daudi; type: biochemical
# T2 construct: Partially purified p21ras farnesyltransferase from human tumors; endogenous in cells; host or cells: Daudi Burkitt's lymphoma cells
# T2 sequence (P49356 whole entry, one chain of several): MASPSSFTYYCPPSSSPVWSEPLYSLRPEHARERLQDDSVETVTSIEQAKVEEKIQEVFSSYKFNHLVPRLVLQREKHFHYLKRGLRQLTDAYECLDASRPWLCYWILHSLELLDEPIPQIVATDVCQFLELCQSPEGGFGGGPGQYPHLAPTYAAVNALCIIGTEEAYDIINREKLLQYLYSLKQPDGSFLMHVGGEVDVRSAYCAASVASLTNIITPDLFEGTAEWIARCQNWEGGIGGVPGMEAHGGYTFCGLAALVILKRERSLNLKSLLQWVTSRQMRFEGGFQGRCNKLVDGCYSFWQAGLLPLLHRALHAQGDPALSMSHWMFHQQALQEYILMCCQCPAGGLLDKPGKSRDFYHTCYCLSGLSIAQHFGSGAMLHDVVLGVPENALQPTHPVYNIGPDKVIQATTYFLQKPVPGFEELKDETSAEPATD
# Experimental: (§2) Human colon carcinoma COLO-205 cells (ATCC, Rockville, Md.) were grown to confluency in RPMI containing 10% FBS, 1% penicillin/streptomycin at 37° C and 10% Co2 atmosphere. The cells were homogenized in lysis buffer (10 mM Hepes pH 7.4, 1 mM MgCl2, 1 mM EDTA, 0.1 mM DDT, and 0.1 mM PMSF) and centrifuged at 12,000×g followed by a 60,000×g centrifugation of the supernatant. p21ras farnesyltransferase from 60,000×g supernatant fractions was then partially purified by DEAE-sephacel chromatography where it was eluted with 50 mM Tris (pH 7.5) containing 0.4M NaCl. p21ras farnesyltransferase activity was determined by measuring the amount of [3H]FPP transferred to recombinant p21H-ras as previously described (15,16). p21H-ras was isolated from E. coli strain RRI expressing p21H-ras (Hoffman-LaRoche, Inc.) as described previously (25) except for the last step of purification where HPLC was replaced by DEAE-sephacel chromatography. For peptide inhibition studios, CA1 A2 X peptides and peptidomimetics were premixed with p21ras farnesyltransferase (40 μg) prior to adding the reaction mixture (50 Mm Tris (pH. 7.5), 50 μM ZnCl2, 20 mM KCl, 1 mM DTT, 20 μM p21H-ras, 9 mmol [3H]FPP). After incubation for one hour at 37° C., the reaction was stopped and filtered on glass fibers as described earlier (15,16).
# (§3) To determine the potency of the novel peptidomimetics relative to their parent tetrapeptides, the potency of CA1 A2 X corresponding to the carboxyl terminus ends of p21 KA -ras, p21 KB -ras and p21N-ras to inhibit p21ras farnesyltransferase from human colon carcinoma (COLO-205) and Burkitt's lymphoma (Daudi) was determined.
# [6] = target: T3, p21ras farnesyltransferase from human colon carcinoma (COLO-205) (Homo sapiens, UniProt P49354+P49356); assay: p21ras farnesyltransferase activity assay, enzyme from COLO-205; type: biochemical; settings: for inhibition of p21ras farnesyltransferase (in words): human tumor enzyme (COLO-205 and Daudi), concentrations as high as 10 μM
# T3 construct: p21ras farnesyltransferase from 60,000×g supernatant fractions was then partially purified by DEAE-sephacel chromatography; endogenous in cells; host or cells: COLO-205 human colon carcinoma cells (cytosolic 60,000×g supernatant, DEAE-sephacel fraction)
# Experimental: as §2, §3
# [7] = Table 2, ras oncogene-transformed cells, read-out: IC50 (uM) Growth Studies
# [8] = MTT, four days, FIG. 4A/4B, read-out: EJ3 cell growth inhibition IC50
# [9] = Table 2, read-out: IC50 (uM) Farnesyltransferase
# [10] = enzyme from EJ3 cells, FIG. 5A/5B, read-out: p21ras farnesyltransferase IC50
# [11] = partially purified enzyme from Daudi, transfer of farnesyl to recombinant p21 H-ras, read-out: IC50 (μM) Daudi
# [12] = read-out: IC50, p21ras farnesyltransferase from Daudi
# [13] = partially purified enzyme from COLO-205, transfer of farnesyl to recombinant p21 H-ras, read-out: IC50 (μM) COLO-205
Compound,"IC50 [4, 9] [µM]","IC50 [5, 11] [µM]","IC50 [6, 13] [µM]","IC50 [1, 7] [µM]",other results
"O=C(N[C@@H](CSC(=O)OCc1ccccc1)C(=O)O)OCc1ccccc1 [BB-Cys, N S-DiCBZ-cysteine]",–,–,–,275 ± 41,–
"COC(=O)[C@H](CCSC)NC(=O)c1cccc(CNC(=O)[C@H](CSC(=O)OCc2ccccc2)NC(=O)OCc2ccccc2)c1 [BBM-C-AMBA-M, N, S-DiCBZ-Cys-AMBA-Met-OCH3]",> 100,–,–,12.1 ± 1,"IC50 [1, 8]: 10 µM; IC50 ([1]; MTT, selectivity study, FIG. 7A/7B, read-out: EJ3 cell growth inhibition IC50): 20 µM; effect on A-31 cell growth (in words) [2]: not much affected; inhibition of p21ras plasma membrane association (in words) [3]: inhibited p21ras plasma membrane association; IC50 [4, 10]: > 100 µM"
CC[C@H](C)[C@H](NC(=O)[C@@H](NC(=O)[C@H](CSC(=O)OCc1ccccc1)NC(=O)OCc1ccccc1)C(C)C)C(=O)N[C@@H](CCSC)C(=O)OC [BBM-VCIM] (Cbz-C(Cbz)VIM-OMe),–,–,–,215 ± 66,–
"N[C@@H](CS)C(=O)NCc1cccc(C(=O)N[C@@H](Cc2ccccc2)C(=O)O)c1 [C-AMBA-F, Cys-AMBA-Phe]",–,0.6,0.53,–,"IC50 [5, 12]: 0.6 µM"
"CC(C)C[C@H](NC(=O)c1cccc(CNC(=O)[C@@H](N)CS)c1)C(=O)O [C-AMBA-L, Cys-AMBA-Leu]",–,> 10,> 10,–,inhibition of p21ras farnesyltransferase (in words) [6]: had no inhibitory activity
"CC[C@H](C)[C@H](NC(=O)[C@@H](NC(=O)[C@@H](N)CS)C(C)C)C(=O)N[C@@H](CCSC)C(=O)O [CVIM, Cys-Val-Ile-Met, reference compound] (H-CVIM-OH)",0.35,–,–,–,"IC50 [5, 12]: 0.19 µM; IC50 ([4]; enzyme from EJ3 cells, FIG. 5A, read-out: p21ras farnesyltransferase IC50): 0.4 µM"
"CC[C@H](C)C(=O)O[C@H]1C[C@@H](C)C=C2C=C[C@H](C)[C@H](CC[C@@H]3C[C@@H](O)CC(=O)O3)[C@H]21 [Lovastatin, reference compound]",–,–,–,–,inhibition of p21ras plasma membrane association (in words) [3]: inhibited p21ras membrane association
"CC[C@H](C)[C@H](NC(=O)[C@H](CS)NC(=O)[C@@H](N)C(C)C)C(=O)N[C@@H](CCSC)C(=O)O [VCIM, reference compound] (H-VCIM-OH)",40,> 10,> 10,–,"IC50 [4, 10]: > 10 µM"
Ser-AMBA-Met [S-AMBA-M],–,> 10,> 10,–,inhibition of p21ras farnesyltransferase (in words) [6]: did not inhibit

# More lines, main results first:
"IC50 [4, 9] [µM]","IC50 [5, 11] [µM]","IC50 [6, 13] [µM]",Compound,"IC50 [1, 7] [µM]",other results
> 100,–,–,CC[C@H](C)[C@H](NC(=O)[C@@H](NC(=O)[C@H](CSC(=O)OCc1ccccc1)NC(=O)OCc1ccccc1)C(C)C)C(=O)N[C@@H](CCSC)C(=O)OC [BBM-CVIM] (Cbz-C(Cbz)VIM-OMe),–,"IC50 [4, 10]: > 10 µM"
–,> 10,> 10,"NCCCC[C@H](NC(=O)c1cccc(CNC(=O)[C@@H](N)CS)c1)C(=O)O [C-AMBA-K, Cys-AMBA-Lys]",–,inhibition of p21ras farnesyltransferase (in words) [6]: abolished p21ras farnesyltransferase inhibition activity
3.1,–,0.06,"CSCC[C@H](NC(=O)c1cccc(CNC(=O)[C@@H](N)CS)c1)C(=O)O [C-AMBA-M, Cys-AMBA-Met]",627 ± 178,"IC50 [1, 8]: 1500 µM; inhibition of p21ras plasma membrane association (in words) [3]: did not inhibit p21ras plasma association; increase in potency over CIIM ([5]; Daudi): 6.9 fold; increase in potency over CVIM ([5]; Daudi): 1.6 fold; increase in potency over CVVM ([5]; Daudi): 5.1 fold; IC50 [5, 12]: 0.12 µM; IC50 [4, 10]: 2 µM; increase in potency over CIIM ([6]; COLO-205): 8.8 fold; increase in potency over CVIM ([6]; COLO-205): 3.3 fold; increase in potency over CVVM ([6]; COLO-205): 7.7 fold; IC50 ([6]; read-out: IC50, p21ras farnesyltransferase from COLO-205): 0.06 µM"
–,0.83,0.53,"CC[C@H](C)[C@H](NC(=O)[C@@H](NC(=O)[C@@H](N)CS)[C@@H](C)CC)C(=O)N[C@@H](CCSC)C(=O)O [CIIM, reference compound] (H-CIIM-OH)",–,–
–,0.61,0.46,"CSCC[C@H](NC(=O)[C@@H](NC(=O)[C@@H](NC(=O)[C@@H](N)CS)C(C)C)C(C)C)C(=O)O [CVVM, Cys-Val-Val-Met, reference compound] (H-CVVM-OH)",–,–
4.5,–,–,CC[C@H](C)[C@H](NC(=O)[C@@H](NC(=O)[C@@H](N)CS)C(C)C)C(=O)N[C@@H](CCSC)C(=O)OC [M-CVIM] (HELM PEPTIDE1{C.V.I.M.[CO[*:1]]}$$$$V2.0),200 ± 58,–
–,1.54,1.42,Cys-AMBA-Glu [C-AMBA-E],–,reduction of ability to inhibit the enzyme relative to Cys-AMBA-Met ([5]; Daudi): 13 fold; reduction of ability to inhibit the enzyme relative to Cys-AMBA-Met ([6]; COLO-205): 24 fold
